# Tested on: moderate-to-severe chronic spontaneous urticaria (CSU)
# Assay: Phase 2 CSU study: itch severity score over 7 days (ISS7)
# Type: in vivo, human
# Conditions: Omalizumab-Naïve
# Source text: The study comprises a 12 week, randomized, double-blind, placebo-controlled, multi-center, dose-ranging efficacy and safety phase, followed by a 40 week open label extension (OLE) phase (see FIG. 1). The study consists of three phases and an optional OLE phase. […] Clinically, CSU is characterized by the spontaneous and recurrent appearance of pruritic hives. The proposed primary endpoints were the UAS7 at Week 12 in EU and EU reference countries and the ISS7 in the US. Regardless of where a participant was from, all assessments were the same. The UAS7 score is a composite score containing both the HSS7 and the ISS7. This allowed a global assessment of the two key components of urticaria: hives and itch. […] The UAS is a validated PRO measure. […] The daily UAS scores range from 0 to 6 point/day. […] Patients were to complete the UAS using the e-diary. […] The following secondary endpoints were to be analyzed using the same approach as for the primary endpoint: • Change from baseline in UAS7 at Week 4 • Change from baseline in UAS7 at Week 12 (for US and US reference countries) • Change from baseline in ISS7 at Week 12 (except US and US reference countries) • Change from baseline in HSS7 at Week 12
smiles,measurement,setting,value
"CC(C)(C=C(C#N)C(=O)N1CCC[C@@H](n2nc(-c3ccc(Oc4ccccc4)cc3F)c3c(N)ncnc32)C1)N1CCN(C2COC2)CC1 [rilzabrutinib, (R)-2-[3-[4-amino-3-(2-fluoro-4-phenoxy-phenyl)pyrazolo[3,4-d]pyrimidin-1-yl]piperidine-1-carbonyl]-4-methyl-4-[4-(oxetan-3-yl)piperazin-1-yl]pent-2-enenitrile]",ISS7 Post-baseline Mean (SD),"outlier removed, 400 mg TID, Week 1",9.79 (5.47)
same,ISS7 Post-baseline Mean (SD),"outlier removed, 400 mg TID, Week 2",8.59 (5.80)
same,ISS7 Post-baseline Mean (SD),"outlier removed, 400 mg TID, Week 3",8.18 (5.41)
same,ISS7 Post-baseline Mean (SD),"outlier removed, 400 mg TID, Week 4",7.79 (5.03)
same,ISS7 Post-baseline Mean (SD),"outlier removed, 400 mg TID, Week 5",6.92 (5.87)
same,ISS7 Post-baseline Mean (SD),"outlier removed, 400 mg TID, Week 6",7.32 (6.05)
same,ISS7 Post-baseline Mean (SD),"outlier removed, 400 mg TID, Week 7",7.14 (5.35)
same,ISS7 Post-baseline Mean (SD),"outlier removed, 400 mg TID, Week 8",7.24 (5.51)
same,ISS7 Post-baseline Mean (SD),"outlier removed, 400 mg TID, Week 9",6.68 (5.31)
same,ISS7 Post-baseline Mean (SD),"outlier removed, 400 mg TID, Week 10",6.75 (5.25)
same,ISS7 Post-baseline Mean (SD),"outlier removed, 400 mg TID, Week 11",6.99 (5.53)
same,ISS7 Post-baseline Mean (SD),"outlier removed, 400 mg TID, Week 12",5.77 (5.26)
same,ISS7 % Change difference for rilzabrutinib vs. placebo LS Mean (95% CI),"400 mg BID, Week 1","−23.80 (−38.99, −8.60) %"
same,ISS7 % Change from baseline LS Mean (SE),"400 mg BID, Week 1",−33.92 (5.73) %
same,ISS7 Change difference for rilzabrutinib vs. placebo LS Mean (95% CI),"400 mg BID, Week 1",−3.14
same,ISS7 Change from baseline LS Mean (SE),"400 mg BID, Week 1",−5.06 (0.83)
same,ISS7 % Change difference for rilzabrutinib vs. placebo LS Mean (95% CI),"400 mg BID, Week 2","−17.28 (−32.06, −2.50) %"
same,ISS7 % Change from baseline LS Mean (SE),"400 mg BID, Week 2",−35.92 (5.58) %
same,ISS7 Change difference for rilzabrutinib vs. placebo LS Mean (95% CI),"400 mg BID, Week 2",−2.26
same,ISS7 Change from baseline LS Mean (SE),"400 mg BID, Week 2",−5.49 (0.83)
same,ISS7 Post-baseline Mean (SD),"400 mg BID, Week 2",10.32 (5.64)
same,ISS7 % Change difference for rilzabrutinib vs. placebo LS Mean (95% CI),"400 mg BID, Week 3","−20.30 (−35.19, −5.41) %"
same,ISS7 % Change from baseline LS Mean (SE),"400 mg BID, Week 3",−40.91 (5.60) %
same,ISS7 Change difference for rilzabrutinib vs. placebo LS Mean (95% CI),"400 mg BID, Week 3",−2.82
same,ISS7 Change from baseline LS Mean (SE),"400 mg BID, Week 3",−6.52 (0.87)
same,ISS7 Post-baseline Mean (SD),"400 mg BID, Week 3",9.16 (6.09)
same,ISS7 % Change difference for rilzabrutinib vs. placebo LS Mean (95% CI),"400 mg BID, Week 4","−20.53 (−36.37, −4.69) %"
same,ISS7 % Change from baseline LS Mean (SE),"400 mg BID, Week 4",−43.47 (5.96) %
same,ISS7 Change difference for rilzabrutinib vs. placebo LS Mean (95% CI),"400 mg BID, Week 4",−2.86
same,ISS7 Change from baseline LS Mean (SE),"400 mg BID, Week 4",−6.96 (0.93)
same,ISS7 Post-baseline Mean (SD),"400 mg BID, Week 4",8.32 (6.02)
same,ISS7 Post-baseline Mean (SD),"400 mg BID, Week 5",8.88 (6.81)
same,ISS7 Post-baseline Mean (SD),"400 mg BID, Week 6",8.85 (6.40)
same,ISS7 Post-baseline Mean (SD),"400 mg BID, Week 7",8.21 (6.16)
same,ISS7 Post-baseline Mean (SD),"400 mg BID, Week 8",7.33 (6.55)
same,ISS7 Post-baseline Mean (SD),"400 mg BID, Week 9",7.63 (7.11)
same,ISS7 Post-baseline Mean (SD),"400 mg BID, Week 10",8.17 (7.29)
same,ISS7 Post-baseline Mean (SD),"400 mg BID, Week 11",7.93 (6.94)
same,ISS7 % Change difference for rilzabrutinib vs. placebo LS Mean (95% CI),"400 mg BID, Week 12","−14.10 (−32.26, 4.06) %"
same,ISS7 % Change from baseline LS Mean (SE),"400 mg BID, Week 12",−48.31 (6.75) %
same,ISS7 Change difference for rilzabrutinib vs. placebo LS Mean (95% CI),"400 mg BID, Week 12",−1.96
same,ISS7 Change from baseline LS Mean (SE),"400 mg BID, Week 12",−7.73 (1.06)
same,ISS7 Post-baseline Mean (SD),"400 mg BID, Week 12",8.09 (6.95)
same,ISS7 % Change difference for rilzabrutinib vs. placebo LS Mean (95% CI),"400 mg QPM, Week 1","−8.25 (−23.30, 6.80) %"
same,ISS7 % Change from baseline LS Mean (SE),"400 mg QPM, Week 1",−18.38 (5.55) %
same,ISS7 Change difference for rilzabrutinib vs. placebo LS Mean (95% CI),"400 mg QPM, Week 1",−1.33
same,ISS7 Change from baseline LS Mean (SE),"400 mg QPM, Week 1",−3.25 (0.80)
same,ISS7 Post-baseline Mean (SD),"400 mg QPM, Week 1",13.08 (4.52)
same,ISS7 % Change difference for rilzabrutinib vs. placebo LS Mean (95% CI),"400 mg QPM, Week 2","−5.32 (−19.96, 9.32) %"
same,ISS7 % Change from baseline LS Mean (SE),"400 mg QPM, Week 2",−23.96 (5.37) %
same,ISS7 Change difference for rilzabrutinib vs. placebo LS Mean (95% CI),"400 mg QPM, Week 2",−0.76
same,ISS7 Change from baseline LS Mean (SE),"400 mg QPM, Week 2",−3.99 (0.80)
same,ISS7 % Change difference for rilzabrutinib vs. placebo LS Mean (95% CI),"400 mg QPM, Week 3","−8.38 (−23.14, 6.38) %"
same,ISS7 % Change from baseline LS Mean (SE),"400 mg QPM, Week 3",−28.99 (5.42) %
same,ISS7 Change difference for rilzabrutinib vs. placebo LS Mean (95% CI),"400 mg QPM, Week 3",−1.12
same,ISS7 Change from baseline LS Mean (SE),"400 mg QPM, Week 3",−4.82 (0.85)
same,ISS7 Post-baseline Mean (SD),"400 mg QPM, Week 3",11.60 (4.68)
same,ISS7 % Change difference for rilzabrutinib vs. placebo LS Mean (95% CI),"400 mg QPM, Week 4","−7.02 (−22.76, 8.71) %"
same,ISS7 % Change from baseline LS Mean (SE),"400 mg QPM, Week 4",−29.97 (5.75) %
same,ISS7 Change difference for rilzabrutinib vs. placebo LS Mean (95% CI),"400 mg QPM, Week 4",−0.93
same,ISS7 Change from baseline LS Mean (SE),"400 mg QPM, Week 4",−5.03 (0.89)
same,ISS7 Post-baseline Mean (SD),"400 mg QPM, Week 4",11.39 (4.79)
same,ISS7 Post-baseline Mean (SD),"400 mg QPM, Week 5",11.00 (4.68)
same,ISS7 Post-baseline Mean (SD),"400 mg QPM, Week 6",10.27 (5.26)
same,ISS7 Post-baseline Mean (SD),"400 mg QPM, Week 7",10.68 (5.34)
same,ISS7 Post-baseline Mean (SD),"400 mg QPM, Week 8",10.72 (5.26)
same,ISS7 Post-baseline Mean (SD),"400 mg QPM, Week 10",10.43 (5.30)
same,ISS7 Post-baseline Mean (SD),"400 mg QPM, Week 11",11.03 (5.55)
same,ISS7 % Change difference for rilzabrutinib vs. placebo LS Mean (95% CI),"400 mg QPM, Week 12","−0.54 (−18.55, 17.47) %"
same,ISS7 % Change from baseline LS Mean (SE),"400 mg QPM, Week 12",−34.75 (6.64) %
same,ISS7 Change difference for rilzabrutinib vs. placebo LS Mean (95% CI),"400 mg QPM, Week 12",0.58
same,ISS7 Change from baseline LS Mean (SE),"400 mg QPM, Week 12",−5.19 (1.02)
same,ISS7 % Change from baseline LS Mean (SE),"400 mg TID, Week 1",−37.45 (5.78) %
same,ISS7 Change difference for rilzabrutinib vs. placebo LS Mean (95% CI),"400 mg TID, Week 1",−4.21
same,ISS7 Change from baseline LS Mean (SE),"400 mg TID, Week 1",−6.13 (0.82)
same,ISS7 Post-baseline Mean (SD),"400 mg TID, Week 1",9.51 (5.64)
same,ISS7 % Change difference for rilzabrutinib vs. placebo LS Mean (95% CI),"400 mg TID, Week 2","−27.63 (−42.70, −12.56) %"
same,ISS7 % Change from baseline LS Mean (SE),"400 mg TID, Week 2",−46.27 (5.61) %
same,ISS7 Change difference for rilzabrutinib vs. placebo LS Mean (95% CI),"400 mg TID, Week 2",−4.14
same,ISS7 Change from baseline LS Mean (SE),"400 mg TID, Week 2",−7.37 (0.82)
same,ISS7 Post-baseline Mean (SD),"400 mg TID, Week 2",8.40 (5.82)
same,ISS7 % Change difference for rilzabrutinib vs. placebo LS Mean (95% CI),"400 mg TID, Week 3","−27.20 (−42.33, −12.08) %"
same,ISS7 % Change from baseline LS Mean (SE),"400 mg TID, Week 3",−47.81 (5.64) %
same,ISS7 Change difference for rilzabrutinib vs. placebo LS Mean (95% CI),"400 mg TID, Week 3",−3.58
same,ISS7 Change from baseline LS Mean (SE),"400 mg TID, Week 3",−7.29 (0.87)
same,ISS7 Post-baseline Mean (SD),"400 mg TID, Week 3",8.34 (5.42)
same,ISS7 % Change difference for rilzabrutinib vs. placebo LS Mean (95% CI),"400 mg TID, Week 4","−24.55 (−40.74, −8.36) %"
same,ISS7 % Change from baseline LS Mean (SE),"400 mg TID, Week 4",−47.50 (6.02) %
same,ISS7 Change difference for rilzabrutinib vs. placebo LS Mean (95% CI),"400 mg TID, Week 4",−3.23
same,ISS7 Change from baseline LS Mean (SE),"400 mg TID, Week 4",−7.33 (0.92)
same,ISS7 Post-baseline Mean (SD),"400 mg TID, Week 4",7.79 (5.03)

# From patent US20260256792A1, “TREATMENT OF CHRONIC SPONTANEOUS URTICARIA BY ADMINISTERING (R)-2-[3-[4-AMINO-3-(2-FLUORO-4-PHENOXY-PHENYL)PYRAZOLO[3,4-D]PYRIMIDIN-1-YL]PIPERIDINE-1-CARBONYL]-4-METHYL-4-[4-(OXETAN-3-YL)PIPERAZIN-1-YL]PENT-2-ENENITRILE” (priority 2023, published 2026)
